Experimental findings from US20240374730A1, “PHOTOACTIVATABLE PRODRUG NANOPARTICLES FOR COMBINED ANTI-ANGIOGENESIS AND PHOTODYNAMIC THERAPY” (The University of Hong Kong, priority 2021, published 2024) are described below.

Assay [1] deals with VEGF-stimulated human umbilical vein endothelial cells (HUVECs). Kind of assay: MTT cell viability of VEGF-stimulated HUVECs (dasatinib vs Di-DAS). The following applies: HUVEC, 20 ng/mL VEGF165, 48 h, read-out: 50% inhibition concentration (IC50). It counts as cell-based. Here is the method: . Cells were incubated with 20 ng/mL VEGF165 and co-treated with dasatinib or Di-DAS at various concentrations for 48 h. FIG. 4B VEGF-stimulated HUVEC tube formation assay of Di-DAS-VER. […] FIG. 4C Quantitative HUVEC cell viability of Di-DAS-VER by MTT assay. […] MTT assay was performed at 24 h after treatment. […] . DAS: dasatinib; VER: verteporfin.
We tested the in vitro anti-angiogenic activity of DAS and Di-DAS in VEGF-stimulated human umbilical vein endothelial cells (HUVECs). […] . To assess therapeutic efficacy of combined anti-VEGF and PDT treatment, thiazolyl blue tetrazolium bromide (MTT) assay was conducted for measuring VEGF-stimulated HUVEC cell viability.

Another assay relates to VEGF-stimulated HUVECs. Kind of assay: HUVEC scratch-wound healing assay. The following applies: DAS group, irradiation not stated, 20 h.
Assay [2] relates to VEGF-induced HUVEC tube formation. Kind of assay: VEGF-induced HUVEC tube formation assay. It counts as cell-based, human. The following applies: DAS equivalent dose 0.05 μM, 20 ng/mL VEGF165, 4 h.

In the case of `Cc1nc(Nc2ncc(C(=O)Nc3c(C)cccc3Cl)s2)cc(N2CCN(CCO)CC2)n1` [DAS, dasatinib], in assay [1], the IC50 is 910 nM. The same molecule registered a scratch wound recovery in the assay with VEGF-stimulated HUVECs of 11.35%.

Turning to verteporfin, the “inhibition of VEGF-induced HUVEC differentiation and formation of vessel-like tubes” value in assay [2] is “could not inhibit”.
